Patent US9592229B2, “Potent anticancer activity via dual compound activation” (priority 2012, dated 2017)

Key:
[1] = tested on: procaspase-3 in U-937, A549, BT-549 cell lines; assay: Western blot of procaspase-3 cleavage to caspase-3 in cancer cell lines; type: cell-based, human
Text: FIG. 5. PAC-1/1541B combinations induce rapid and dramatic procaspase-3 maturation and activation. A: The caspase-3/-7-like activity of cancer cell lysates after treatment with the PAC-1/1541B combinations. STS=staurosporine. B: Western blot of various cancer cell lines (using Cell Signaling caspase-3 antibody) after treatment with combinations of PAC-1 and 1541B.
FIG. 6. Data analogous to FIG. 5B with A: HL-60 (human leukemia), B: EL4 (murine lymphoma), C: Hs578T (human breast cancer), and D: Jurkat (human leukemia) cell lines.
FIG. 13. Western blot procaspase3 activation analysis of U-937 cells treated with increasing concentrations of 1541B and either with or without PAC-1.
To determine if the elevation of DEVDase activity was the result of enhanced cleavage of procaspase-3 to caspase-3 facilitated by compound co-treatment, cells treated with PAC-1 and 1541B combinations were assessed by Western blot.
Rather 1541 operates by an allosteric binding and activation mechanism.

[2] = tested on: EL4 (murine lymphoma) cells; assay: EL4 syngeneic murine tumor model; type: in vivo, C57/BL6 mice; conditions: PAC-1 125 mg/kg in HPβCD once-a-day for three days; tumors weighed after 8 days
Procedure: EL4 cells (10 million cells per mouse) were injected subcutaneously into mice, the animals were split into four groups and treated with vehicle (2-hydroxypropyl-β-cyclodextrin, HPβCD), 1541B (at 17.5 mg/kg in HPβCD), PAC-1 (125 mg/kg in HPβCD), or 1541B+PAC-1 (17.5 and 125 mg/kg, respectively, in HPβCD). After eight days the mice were sacrificed and the tumors excised and weighed. Error bars equal standard error, and p-values indicated are relative to vehicle control.
To explore the therapeutic utility of this dual procaspase-3 activation strategy, the combination of PAC-1 and 1541B were examined in a murine tumor model.
C57/BL6 mice implanted with EL4 (murine lymphoma) cells were treated with PAC-1 alone (125 mg/kg), 1541B alone (17.5 mg/kg), and PAC-1+1541B (125 mg/kg and 17.5 mg/kg, respectively) once-a-day for three days.

MCF-7 cells = assay: Protection by a pan-caspase inhibitor against PAC-1/1541B-mediated cell death; type: cell-based; conditions: Q-VD-OPh 25 μM
Text: The proapoptotic effect of the PAC-1/1541B combination was blocked with the pan-caspase inhibitor Q-VD-OPh, consistent with the involvement of caspases in the mode of cell death (FIG. 10).

SMILES | activation of procaspase-3 to caspase-3 (Western blot) [1] | effect on tumor growth [2] | protection against PAC-1/1541B-mediated cell death (MCF-7 cells)
C=CCc1cccc(/C=N/NC(=O)CN2CCN(Cc3ccccc3)CC2)c1O [PAC-1, 2-(4-benzylpiperazin-1-yl)-N-[(2-hydroxy-3-prop-2-enyl-phenyl)methylideneamino]acetamide] | low/no procaspase-3 activation | only minimal effect | –
CC(C)[C@H](NC(=O)c1ccc2ccccc2n1)C(=O)N[C@@H](CC(=O)O)C(=O)COc1c(F)cccc1F [Q-VD-OPh] | – | – | protects against PAC-1/1541B-mediated cell death
